For 27 compounds, TGI and GI50 results are on record in PubChem BioAssay (NCI).

Some test systems named below: MCF7 breast; MDA-N; T-47D breast; M19-MEL melanoma; LXFL 529 NSCLC; DMS 273 small cell lung; SNB-78 CNS.
Holding throughout (assay): DTP human tumour cell line panel, 48 h

SMILES strings stand for the structures.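 Five concentrations, 48 hours, 96-well plates. At the GI50, growth is halved. TGI denotes the concentration required for complete inhibition of growth.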

What is called TGI is the concentration giving total growth inhibition. A lower TGI goes with more potent growth arrest. Broadly, the GI50 is the concentration at which growth is held to half of that of the control.

In the case of `CC(CS(=O)(=O)Cc1ccccc1)C(N)=O` (centres undefined), the TGI with MCF7 breast, in the experiment with MDA-N and in the experiment with T-47D breast was > 100 µM in each case.
Consider `O=C(N[C@@H]1CCCc2ccccc21)[C@H](CCC(=O)N1CCN(C2CCCCC2)CC1)N1C(=O)[C@@H](N2C(=O)OC[C@@H]2c2ccccc2)[C@H]1/C=C/c1ccccc1`, for which, in the experiment on MCF7 breast, the GI50 was 2.18 µM and the concentration for total growth inhibition (TGI) is 13.4 µM. Further, in the experiment with T-47D breast, the GI50 was 2.98 µM and the TGI amounted to 14.6 µM.
In the case of `COc1ccc2nc3ccc(OC)cc3c(SCCCN)c2c1`, in the experiment on T-47D breast, the GI50 is 3.08 µM and the TGI turned out to be 14.2 µM.
For `COc1ccccc1C(=O)c1cnc(NC2CCN(S(C)(=O)=O)CC2)nc1N`, the results for the GI50 in the experiment on MCF7 breast and in the experiment on T-47D breast were 1.19 µM and 8.8 µM, respectively. The TGI with MCF7 breast and in the experiment with T-47D breast was > 25 µM throughout.
As for `c1ccc2c(c1)nc(NCCN1CCNCC1)c1c3ccccc3[nH]c21`, in the experiment on MCF7 breast, the GI50 is 0.0799 µM and the TGI is 0.709 µM. In the experiment with T-47D breast, the GI50 is 0.903 µM and the TGI was 3.83 µM.
Regarding `COc1c(O)c(OC)c(C(=O)/C=C/c2ccccc2)c(O)c1OC`, the TGI in the experiment with MCF7 breast was > 100 µM; in the experiment with MDA-N, 46 µM; with T-47D breast, 79.7 µM.
In the same order, the values of `COc1ccc2c(c1O)[C@@]13C=C(O)C(=O)C=C1[C@@H](C2)N(C)CC3` are > 100 µM, > 100 µM and > 100 µM.
As for `CC(=O)[CH-]C(=O)c1ccccc1.CC(=O)[CH-]C(=O)c1ccccc1.[O]=[U+2]=[O]`, the GI50 is 28.9 µM in the experiment with M19-MEL melanoma and 32.7 µM with LXFL 529 NSCLC. Also, the TGI with M19-MEL melanoma and in the experiment with LXFL 529 NSCLC was > 100 µM throughout.
As for `COc1ccc(C[C@H]2C[C@@H](O)[C@@H](C)C/C=C/Cc3cccc(O)c3C(=O)O2)cn1`, in the experiment with MCF7 breast, the GI50 was 19.5 µM and the TGI was determined as 66.6 µM. Besides, in the experiment with T-47D breast, the GI50 was 33.1 µM and the TGI was > 100 µM.
Turning to `Cc1nnc([S-])s1.[Au+].c1ccc([PH+](c2ccccc2)c2ccccc2)cc1`, in the experiment with T-47D breast, the GI50 is 2.2 µM and the TGI is 6.12 µM.
In the case of `O=c1c2ccccc2nc(-c2ccccc2)n1NCC1(O)OCC(O)C(O)C1O` (centres undefined), the TGI in the experiment on DMS 273 small cell lung, in the experiment with M19-MEL melanoma, in the experiment on SNB-78 CNS and in the experiment on LXFL 529 NSCLC was > 100 µM throughout.
In the case of `N#CC1c2ccccc2-c2ccccc2N1C(=O)c1ccccc1` (centres undefined), the GI50 in the experiment with MCF7 breast is 1.3 µM; in the experiment with T-47D breast it was 25.7 µM. Also, the TGI with MCF7 breast and in the experiment on T-47D breast was > 100 µM throughout.
For the compound `COc1cc2oc3ccccc3c(=O)c2cc1CSc1ccccc1N`, the values for the TGI with MCF7 breast, in the experiment with MDA-N and in the experiment on T-47D breast were > 100 µM, > 100 µM and 27.8 µM, respectively.
As for `O=C(Oc1c(I)ccccc1=O)c1ccc([N+](=O)[O-])cc1`, the results for the TGI in the experiment on MCF7 breast and in the experiment on T-47D breast were 35.5 µM and 1.33 µM, respectively.
As to `CCCC/C(=N\N=C(N)N)c1ccc(F)cc1`, in the experiment with MCF7 breast, the GI50 was 0.758 µM and the TGI came out at 11.9 µM. In the experiment on T-47D breast, the GI50 was 2.61 µM and the TGI was found to be 15.6 µM.
For the compound `CCN(CC)CCOc1ccc(/C=C2\C[C@H]3[C@@H]4CC=C5C[C@@H](OC(C)=O)CC[C@]5(C)[C@H]4CC[C@]3(C)[C@H]2OC(C)=O)cc1OC`, in the experiment with MCF7 breast, the GI50 is 12.8 µM and the TGI was > 50 µM. In the experiment on T-47D breast, the GI50 was 16.3 µM and the TGI is 48.1 µM.
The like results for `CN1C(=O)c2cc(Cl)nc3c(NC(=O)c4cccc(Cl)c4)c(Cl)c(NC(=O)c4cccc(Cl)c4)c1c23` were, in that order, 1.94 µM, 6.26 µM, 1.77 µM and 4.32 µM.
As for `COC(=O)c1cc(Nc2ccc(O)c3c2C(=O)c2c([N+](=O)[O-])ccc(O)c2C3=O)cc(C(=O)OC)c1`, in the experiment on MCF7 breast, the GI50 is 4.3 µM and the TGI was > 100 µM. In addition, in the experiment with T-47D breast, the GI50 was 4.78 µM and the TGI is > 100 µM.
For `O=C(OCc1ccccc1CN1CCOCC1)c1ccc(Br)cc1`, the TGI in the experiment with MCF7 breast and in the experiment with T-47D breast was > 100 µM in each case.
As to `CN1CCCC1c1cccnc1.O=C(O)c1ccccc1O.O=C([O-])c1ccccc1[OH2+].O=C([O-])c1ccccc1[OH2+].O=C([O-])c1ccccc1[OH2+].[Mn+2]` (centres undefined), the GI50 was 50 µM in the experiment on MCF7 breast, > 100 µM with MDA-N and > 100 µM with T-47D breast. Further, the TGI in the experiment with MCF7 breast, in the experiment on MDA-N and with T-47D breast was > 100 µM in each case.
For the compound `COC(=O)/C(C#N)=C1\N=NNN1CCCN1CCOCC1`, the TGI in the experiment on DMS 273 small cell lung, in the experiment with M19-MEL melanoma, in the experiment on SNB-78 CNS and in the experiment on LXFL 529 NSCLC was > 100 µM throughout.
In the case of `COc1cc[nH]c1/C=C1\C(=O)Nc2ccc(F)c(C#CC3(O)CCOCC3)c21`, in the experiment with MCF7 breast, the GI50 is 0.758 µM and the TGI is 4.68 µM. In the experiment on T-47D breast, the GI50 was 1.1 µM and the TGI was 16 µM.
Take `O=C1C=C(Nc2cccc(Br)c2)c2ccccc2C1=O`: in the experiment with MCF7 breast, the GI50 is 2.71 µM and the TGI came to 24.2 µM.
Turning to `O=C1c2cccnc2C(=O)c2c1c(C(=O)OCCCN1CCOCC1)c1ccccn21`, in the experiment on MCF7 breast, the GI50 is < 0.01 µM and the TGI was < 0.0116 µM. For the same compound, in the experiment on T-47D breast, the GI50 was 0.178 µM and the TGI came to 5.94 µM.
With `Cc1c(C(C)C)cc(OCCO)cc1C(C)C`, the TGI with MCF7 breast, in the experiment on MDA-N and with T-47D breast was > 100 µM each time.
With `COC(=O)[C@H](Cc1ccccc1)NC(=O)c1csc([C@@H](C[C@H](C(C)C)N(C)C(=O)[C@@H](NC(=O)[C@H]2CCCCN2C)C2CC2)OC(C)=O)n1`, in the experiment with MCF7 breast, the 50% growth inhibitory concentration (GI50) was 0.0108 µM and the TGI is > 25 µM. In the experiment on T-47D breast, the GI50 was > 25 µM and the TGI is > 25 µM.
Take `O=C1c2ccccc2-c2cc3ccccc3c(=O)n21`: the TGI in the experiment with MCF7 breast, in the experiment with MDA-N and with T-47D breast was > 100 µM each time.
